Measurements taken from ChEMBL document CHEMBL1136811, “Design of novel chimeric melanotropin-deltorphin analogues. Discovery of the first potent human melanocortin 1 receptor antagonist” (J Med Chem, 2003).

Experiments:
[1] = test system: Melanocortin receptor 1 (Xenopus laevis); assay: Antagonistic activity towards Melanocortin 1 receptor in Xenopus frog skin using competitive binding in the presence of 500 pM of alpha-melanocyte stimulating hormone.
[2] = molecular target: Melanocortin receptor 1 (Xenopus laevis); assay: Agonistic activity towards Melanocortin 1 receptor in the Xenopus frog skin assay

| SMILES | IC50 [1] | EC50 [2] |
| --- | --- | --- |
| CC(C)[C@H](NC(=O)[C@@H]1CCC(=O)NCCC(=O)N[C@@H](Cc2c[nH]cn2)C(=O)N[C@H](Cc2ccccc2)C(=O)N[C@@H](CCCN=C(N)N)C(=O)N[C@@H](Cc2c[nH]c3ccccc23)C(=O)N1)C(=O)N[C@H](C(=O)NCC(N)=O)C(C)C | Not Active | – |
| CC(C)[C@H](NC(=O)[C@@H]1CCC(=O)NCCCCCC(=O)N[C@@H](Cc2c[nH]cn2)C(=O)N[C@H](Cc2ccccc2)C(=O)N[C@@H](CCCN=C(N)N)C(=O)N[C@@H](Cc2c[nH]c3ccccc23)C(=O)N1)C(=O)N[C@H](C(=O)NCC(N)=O)C(C)C | Not Active | 23 nM |
| CC(C)[C@H](NC(=O)[C@@H]1CCC(=O)NCC(=O)N2CCC[C@H]2C(=O)N[C@H](Cc2ccccc2)C(=O)N[C@@H](CCCN=C(N)N)C(=O)N[C@@H](Cc2c[nH]c3ccccc23)C(=O)N1)C(=O)N[C@H](C(=O)NCC(N)=O)C(C)C | – | > 10000 nM |
| CC(C)[C@H](NC(=O)[C@@H]1CCC(=O)NCCC(=O)N[C@@H](Cc2c[nH]cn2)C(=O)N[C@H](Cc2ccc3ccccc3c2)C(=O)N[C@@H](CCCN=C(N)N)C(=O)N[C@@H](Cc2c[nH]c3ccccc23)C(=O)N1)C(=O)N[C@H](C(=O)NCC(N)=O)C(C)C | Not Active | 2 nM |
| CC(C)[C@H](NC(=O)[C@@H]1CCC(=O)NCC(=O)N[C@@H](Cc2c[nH]cn2)C(=O)N[C@H](Cc2ccccc2)C(=O)N[C@@H](CCCN=C(N)N)C(=O)N[C@@H](Cc2c[nH]c3ccccc23)C(=O)N1)C(=O)N[C@H](C(=O)NCC(N)=O)C(C)C | Not Active | 510 nM |
| CC(C)[C@H](NC(=O)[C@@H]1CCC(=O)NCC(=O)N[C@@H](Cc2c[nH]cn2)C(=O)N[C@H](Cc2ccc3ccccc3c2)C(=O)N[C@@H](CCCN=C(N)N)C(=O)N[C@@H](Cc2c[nH]c3ccccc23)C(=O)N1)C(=O)N[C@H](C(=O)NCC(N)=O)C(C)C | Not Active | 60 nM |
| CC(C)[C@H](NC(=O)[C@@H]1CCC(=O)N[C@@H](Cc2c[nH]cn2)C(=O)N[C@H](Cc2ccccc2)C(=O)N[C@@H](CCCN=C(N)N)C(=O)N[C@@H](Cc2c[nH]c3ccccc23)C(=O)N1)C(=O)N[C@H](C(=O)NCC(N)=O)C(C)C | – | 825 nM |
| CC(C)[C@H](NC(=O)[C@@H]1CCC(=O)NCCCC(=O)N[C@@H](Cc2cnc[nH]2)C(=O)N[C@H](Cc2ccc3ccccc3c2)C(=O)N[C@@H](CCCNC(=N)N)C(=O)N[C@@H](Cc2c[nH]c3ccccc23)C(=O)N1)C(=O)N[C@H](C(=O)NCC(N)=O)C(C)C | – | 23 nM |
| CC(C)[C@H](NC(=O)[C@@H]1CCC(=O)N2CCC[C@H]2C(=O)N[C@H](Cc2ccc3ccccc3c2)C(=O)N[C@@H](CCCN=C(N)N)C(=O)N[C@@H](Cc2c[nH]c3ccccc23)C(=O)N1)C(=O)N[C@H](C(=O)NCC(N)=O)C(C)C | – | > 10000 nM |
| CC(C)[C@H](NC(=O)[C@@H]1CCC(=O)NCCC(=O)N[C@@H](Cc2cnc[nH]2)C(=O)N[C@H](Cc2ccccc2)C(=O)N[C@@H](CCCNC(=N)N)C(=O)N[C@@H](Cc2c[nH]c3ccccc23)C(=O)N1)C(=O)N[C@H](C(=O)NCC(N)=O)C(C)C | – | 31 nM |
| CC(C)[C@H](NC(=O)[C@@H]1CCC(=O)NCC(=O)N[C@@H](Cc2cnc[nH]2)C(=O)N[C@@H](Cc2ccccc2)C(=O)N[C@@H](CCCNC(=N)N)C(=O)N[C@@H](Cc2c[nH]c3ccccc23)C(=O)N1)C(=O)N[C@H](C(=O)NCC(N)=O)C(C)C | Not Active | 5200 nM |
| CC(C)[C@H](NC(=O)[C@@H]1CCC(=O)NCCCC(=O)N[C@@H](Cc2c[nH]cn2)C(=O)N[C@H](Cc2ccccc2)C(=O)N[C@@H](CCCN=C(N)N)C(=O)N[C@@H](Cc2c[nH]c3ccccc23)C(=O)N1)C(=O)N[C@H](C(=O)NCC(N)=O)C(C)C | Not Active | 313 nM |
| CC(C)[C@H](NC(=O)[C@@H]1CCC(=O)NCCCC(=O)N[C@@H](Cc2c[nH]cn2)C(=O)N[C@H](Cc2ccc3ccccc3c2)C(=O)N[C@@H](CCCN=C(N)N)C(=O)N[C@@H](Cc2c[nH]c3ccccc23)C(=O)N1)C(=O)N[C@H](C(=O)NCC(N)=O)C(C)C | Not Active | – |
| CC(C)[C@H](NC(=O)[C@@H]1CCC(=O)N[C@@H](Cc2c[nH]cn2)C(=O)N[C@H](Cc2ccc3ccccc3c2)C(=O)N[C@@H](CCCN=C(N)N)C(=O)N[C@@H](Cc2c[nH]c3ccccc23)C(=O)N1)C(=O)N[C@H](C(=O)NCC(N)=O)C(C)C | Not Active | 60 nM |
| CC(C)[C@H](NC(=O)[C@@H]1CCC(=O)NCC(=O)N[C@@H](Cc2cncn2COCc2ccccc2)C(=O)N[C@H](Cc2ccccc2)C(=O)N[C@@H](CCCN=C(N)N)C(=O)N[C@@H](Cc2c[nH]c3ccccc23)C(=O)N1)C(=O)N[C@H](C(=O)NCC(N)=O)C(C)C | – | > 10000 nM |
| CC(C)[C@H](NC(=O)[C@@H]1CCC(=O)N[C@@H](Cc2cnc[nH]2)C(=O)N[C@@H](Cc2ccccc2)C(=O)N[C@@H](CCCNC(=N)N)C(=O)N[C@@H](Cc2c[nH]c3ccccc23)C(=O)N1)C(=O)N[C@H](C(=O)NCC(N)=O)C(C)C | – | > 10000 nM |
| CC(C)[C@H](NC(=O)[C@@H]1CCC(=O)NCCCC(=O)N[C@@H](Cc2c[nH]cn2)C(=O)N[C@@H](Cc2ccccc2)C(=O)N[C@@H](CCCN=C(N)N)C(=O)N[C@@H](Cc2c[nH]c3ccccc23)C(=O)N1)C(=O)N[C@H](C(=O)NCC(N)=O)C(C)C | Not Active | 2700 nM |
| CC(C)[C@H](NC(=O)[C@@H]1CCC(=O)NCC(=O)N2CCC[C@H]2C(=O)N[C@H](Cc2ccc3ccccc3c2)C(=O)N[C@@H](CCCN=C(N)N)C(=O)N[C@@H](Cc2c[nH]c3ccccc23)C(=O)N1)C(=O)N[C@H](C(=O)NCC(N)=O)C(C)C | – | > 10000 nM |
| CC(C)[C@H](NC(=O)[C@@H]1CCC(=O)NCCCCCC(=O)N[C@@H](Cc2c[nH]cn2)C(=O)N[C@@H](Cc2ccccc2)C(=O)N[C@@H](CCCN=C(N)N)C(=O)N[C@@H](Cc2c[nH]c3ccccc23)C(=O)N1)C(=O)N[C@H](C(=O)NCC(N)=O)C(C)C | Not Active | > 10000 nM |
